# Test results: ChEMBL document CHEMBL5291721, “A preclinical secondary pharmacology resource illuminates target-adverse drug reaction associations of marketed drugs” (Nat Commun, 2023)
# Assays:
# [1] = biological target: Adenosine receptor A2a (Homo sapiens, UniProt P29274)
# [2] = biological target: T1, Alpha-2A adrenergic receptor (Homo sapiens, UniProt P08913); format: functional, cell-based
# T1 sequence (P08913 whole entry): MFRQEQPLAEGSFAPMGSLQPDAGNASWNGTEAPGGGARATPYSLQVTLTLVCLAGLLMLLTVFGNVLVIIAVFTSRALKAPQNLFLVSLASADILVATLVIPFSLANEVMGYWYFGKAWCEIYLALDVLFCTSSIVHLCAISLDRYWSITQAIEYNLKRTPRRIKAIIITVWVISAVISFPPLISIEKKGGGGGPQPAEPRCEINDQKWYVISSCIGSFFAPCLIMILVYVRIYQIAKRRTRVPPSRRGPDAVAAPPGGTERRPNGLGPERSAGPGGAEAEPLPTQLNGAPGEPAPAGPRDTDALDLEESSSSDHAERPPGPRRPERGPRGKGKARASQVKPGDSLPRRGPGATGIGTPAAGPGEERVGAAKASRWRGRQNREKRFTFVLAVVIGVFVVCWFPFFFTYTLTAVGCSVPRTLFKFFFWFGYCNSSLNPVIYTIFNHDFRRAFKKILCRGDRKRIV
# [3] = biological target: Vasopressin V1a receptor (Homo sapiens, UniProt P37288)
# Chain of Vasopressin V1a receptor (P37288 whole entry): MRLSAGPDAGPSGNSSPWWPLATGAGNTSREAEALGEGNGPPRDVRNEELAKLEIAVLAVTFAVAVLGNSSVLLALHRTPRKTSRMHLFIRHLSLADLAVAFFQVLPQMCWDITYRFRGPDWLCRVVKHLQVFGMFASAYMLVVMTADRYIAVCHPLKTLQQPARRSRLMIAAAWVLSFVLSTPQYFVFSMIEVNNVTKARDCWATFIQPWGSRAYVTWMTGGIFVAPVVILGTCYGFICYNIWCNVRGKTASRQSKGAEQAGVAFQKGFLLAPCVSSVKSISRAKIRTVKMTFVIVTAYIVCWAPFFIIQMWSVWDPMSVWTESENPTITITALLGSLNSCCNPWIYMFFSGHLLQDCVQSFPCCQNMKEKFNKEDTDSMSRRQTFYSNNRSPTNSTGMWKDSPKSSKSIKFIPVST
# [4] = biological target: T2, Cholecystokinin receptor type A (Homo sapiens, UniProt P32238)
# T2 sequence (P32238 whole entry): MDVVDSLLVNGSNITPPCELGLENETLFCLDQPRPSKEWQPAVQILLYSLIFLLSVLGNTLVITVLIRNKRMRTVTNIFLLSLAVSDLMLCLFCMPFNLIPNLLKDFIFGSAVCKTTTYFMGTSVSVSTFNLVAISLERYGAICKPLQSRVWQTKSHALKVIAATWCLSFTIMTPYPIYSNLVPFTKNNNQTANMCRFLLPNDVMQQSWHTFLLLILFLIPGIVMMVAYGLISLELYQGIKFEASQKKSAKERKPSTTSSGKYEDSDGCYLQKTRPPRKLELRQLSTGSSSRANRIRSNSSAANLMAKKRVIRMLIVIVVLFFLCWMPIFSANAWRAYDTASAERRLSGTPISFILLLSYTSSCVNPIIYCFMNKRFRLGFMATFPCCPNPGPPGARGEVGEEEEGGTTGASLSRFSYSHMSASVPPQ
# [5] = biological target: Neuronal acetylcholine receptor subunit alpha-4 (Homo sapiens, UniProt P43681)
# Chain of Neuronal acetylcholine receptor subunit alpha-4 (P43681 whole entry): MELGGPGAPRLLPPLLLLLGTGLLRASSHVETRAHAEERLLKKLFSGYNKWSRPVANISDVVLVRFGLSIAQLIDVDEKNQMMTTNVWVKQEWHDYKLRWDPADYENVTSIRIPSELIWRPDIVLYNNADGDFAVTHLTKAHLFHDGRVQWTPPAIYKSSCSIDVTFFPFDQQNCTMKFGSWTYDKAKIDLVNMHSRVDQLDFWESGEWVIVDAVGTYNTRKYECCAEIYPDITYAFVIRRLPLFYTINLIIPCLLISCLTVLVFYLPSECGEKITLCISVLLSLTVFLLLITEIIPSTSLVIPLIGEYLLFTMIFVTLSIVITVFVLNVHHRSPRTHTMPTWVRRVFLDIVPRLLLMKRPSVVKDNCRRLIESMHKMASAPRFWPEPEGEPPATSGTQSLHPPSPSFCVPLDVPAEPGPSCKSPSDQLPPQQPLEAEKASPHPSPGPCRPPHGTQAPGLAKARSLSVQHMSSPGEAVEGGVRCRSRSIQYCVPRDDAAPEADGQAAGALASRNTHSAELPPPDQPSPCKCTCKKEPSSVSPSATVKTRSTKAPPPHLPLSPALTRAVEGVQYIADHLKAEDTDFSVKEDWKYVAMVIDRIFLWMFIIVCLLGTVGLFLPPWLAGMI
# [6] = biological target: D(1A) dopamine receptor (Homo sapiens, UniProt P21728); format: functional, cell-based
# Chain of D(1A) dopamine receptor (P21728 whole entry): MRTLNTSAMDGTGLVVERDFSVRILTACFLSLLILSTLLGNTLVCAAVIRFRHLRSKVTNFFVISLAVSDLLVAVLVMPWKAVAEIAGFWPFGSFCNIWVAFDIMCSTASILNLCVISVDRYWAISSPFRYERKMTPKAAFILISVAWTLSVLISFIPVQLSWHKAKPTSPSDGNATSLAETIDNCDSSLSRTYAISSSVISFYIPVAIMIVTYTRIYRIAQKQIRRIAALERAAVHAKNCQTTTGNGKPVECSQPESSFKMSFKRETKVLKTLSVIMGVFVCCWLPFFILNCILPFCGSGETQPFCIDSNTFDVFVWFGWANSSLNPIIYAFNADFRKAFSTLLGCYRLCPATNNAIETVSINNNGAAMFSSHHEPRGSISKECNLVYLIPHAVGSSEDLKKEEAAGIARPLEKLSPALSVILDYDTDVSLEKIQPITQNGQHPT
# [7] = biological target: Gamma-aminobutyric acid receptor subunit alpha-1 (Rattus norvegicus, UniProt P62813); format: functional
# [8] = biological target: Growth hormone secretagogue receptor type 1 (Homo sapiens, UniProt Q92847)
# [9] = biological target: 5-hydroxytryptamine receptor 2B (Homo sapiens, UniProt P41595); format: functional, cell-based
# Chain of 5-hydroxytryptamine receptor 2B (P41595 whole entry): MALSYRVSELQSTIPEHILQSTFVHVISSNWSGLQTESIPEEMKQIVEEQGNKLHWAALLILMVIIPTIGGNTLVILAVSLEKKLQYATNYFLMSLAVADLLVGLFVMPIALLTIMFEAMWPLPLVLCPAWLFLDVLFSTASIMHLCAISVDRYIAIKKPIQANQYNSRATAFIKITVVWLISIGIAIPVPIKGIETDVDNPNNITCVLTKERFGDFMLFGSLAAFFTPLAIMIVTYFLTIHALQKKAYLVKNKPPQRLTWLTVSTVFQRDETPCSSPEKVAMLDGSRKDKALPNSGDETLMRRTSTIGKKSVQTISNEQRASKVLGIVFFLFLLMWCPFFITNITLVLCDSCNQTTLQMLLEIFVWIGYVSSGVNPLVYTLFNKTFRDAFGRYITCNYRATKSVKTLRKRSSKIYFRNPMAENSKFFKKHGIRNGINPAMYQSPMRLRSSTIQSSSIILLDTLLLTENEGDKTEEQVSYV
# [10] = biological target: Melanocortin receptor 3 (Homo sapiens, UniProt P41968)
# Chain of Melanocortin receptor 3 (P41968 whole entry): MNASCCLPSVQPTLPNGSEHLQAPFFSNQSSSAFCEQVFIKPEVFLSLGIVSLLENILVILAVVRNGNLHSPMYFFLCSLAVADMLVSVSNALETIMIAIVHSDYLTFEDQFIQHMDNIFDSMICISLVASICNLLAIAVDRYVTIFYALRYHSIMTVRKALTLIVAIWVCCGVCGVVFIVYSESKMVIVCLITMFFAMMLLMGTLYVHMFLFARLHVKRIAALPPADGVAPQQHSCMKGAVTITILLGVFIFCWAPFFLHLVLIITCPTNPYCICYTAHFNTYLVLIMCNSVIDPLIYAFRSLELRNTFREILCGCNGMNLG
# [11] = biological target: Motilin receptor (Homo sapiens, UniProt O43193)
# [12] = biological target: Delta-type opioid receptor (Homo sapiens, UniProt P41143)
# Chain of Delta-type opioid receptor (P41143 whole entry): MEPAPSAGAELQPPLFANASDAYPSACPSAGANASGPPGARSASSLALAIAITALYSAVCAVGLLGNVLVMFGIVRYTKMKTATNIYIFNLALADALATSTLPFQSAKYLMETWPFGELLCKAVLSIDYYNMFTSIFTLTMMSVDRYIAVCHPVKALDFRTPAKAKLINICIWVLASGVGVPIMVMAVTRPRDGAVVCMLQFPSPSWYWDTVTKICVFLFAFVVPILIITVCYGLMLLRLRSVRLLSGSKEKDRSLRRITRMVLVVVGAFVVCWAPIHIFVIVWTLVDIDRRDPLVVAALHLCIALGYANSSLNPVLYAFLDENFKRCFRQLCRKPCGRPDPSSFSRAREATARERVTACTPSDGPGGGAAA
# [13] = biological target: 3',5'-cyclic-AMP phosphodiesterase 4D (Homo sapiens, UniProt Q08499); format: functional
# [14] = biological target: T3, Prostaglandin G/H synthase 1 (Rattus norvegicus, UniProt Q63921); format: functional
# T3 sequence (Q63921 whole entry): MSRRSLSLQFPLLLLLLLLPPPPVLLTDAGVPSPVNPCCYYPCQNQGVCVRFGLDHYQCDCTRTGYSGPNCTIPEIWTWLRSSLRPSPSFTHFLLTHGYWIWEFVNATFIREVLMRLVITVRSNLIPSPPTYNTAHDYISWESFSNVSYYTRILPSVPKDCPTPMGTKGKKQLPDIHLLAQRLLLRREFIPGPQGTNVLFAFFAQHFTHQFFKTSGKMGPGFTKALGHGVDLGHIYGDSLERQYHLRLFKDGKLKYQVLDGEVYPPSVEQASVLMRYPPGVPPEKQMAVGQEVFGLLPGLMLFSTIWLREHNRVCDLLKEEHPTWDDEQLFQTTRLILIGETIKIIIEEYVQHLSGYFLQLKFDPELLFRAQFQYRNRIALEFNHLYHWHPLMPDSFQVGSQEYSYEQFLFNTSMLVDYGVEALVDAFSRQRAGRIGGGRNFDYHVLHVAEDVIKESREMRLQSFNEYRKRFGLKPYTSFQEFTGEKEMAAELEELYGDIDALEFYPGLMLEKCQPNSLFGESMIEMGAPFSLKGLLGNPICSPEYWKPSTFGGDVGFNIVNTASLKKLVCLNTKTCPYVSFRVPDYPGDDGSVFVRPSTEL
# [15] = biological target: T4, Equilibrative nucleoside transporter 1 (Homo sapiens, UniProt Q99808)
# T4 sequence (Q99808 whole entry): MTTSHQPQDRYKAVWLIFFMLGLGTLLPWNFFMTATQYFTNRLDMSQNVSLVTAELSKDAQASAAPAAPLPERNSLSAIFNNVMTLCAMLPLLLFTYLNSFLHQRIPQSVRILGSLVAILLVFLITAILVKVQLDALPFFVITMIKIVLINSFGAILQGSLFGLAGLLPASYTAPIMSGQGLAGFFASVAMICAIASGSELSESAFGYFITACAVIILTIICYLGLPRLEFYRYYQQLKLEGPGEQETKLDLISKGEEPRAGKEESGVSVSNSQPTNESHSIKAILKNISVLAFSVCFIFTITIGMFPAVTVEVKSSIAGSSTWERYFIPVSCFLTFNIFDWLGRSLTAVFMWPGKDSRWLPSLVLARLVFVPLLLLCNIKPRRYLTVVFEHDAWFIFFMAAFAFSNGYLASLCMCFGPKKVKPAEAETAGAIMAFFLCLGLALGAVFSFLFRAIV
# [16] = biological target: Sodium-dependent noradrenaline transporter (Homo sapiens, UniProt P23975)
# Chain of Sodium-dependent noradrenaline transporter (P23975 whole entry): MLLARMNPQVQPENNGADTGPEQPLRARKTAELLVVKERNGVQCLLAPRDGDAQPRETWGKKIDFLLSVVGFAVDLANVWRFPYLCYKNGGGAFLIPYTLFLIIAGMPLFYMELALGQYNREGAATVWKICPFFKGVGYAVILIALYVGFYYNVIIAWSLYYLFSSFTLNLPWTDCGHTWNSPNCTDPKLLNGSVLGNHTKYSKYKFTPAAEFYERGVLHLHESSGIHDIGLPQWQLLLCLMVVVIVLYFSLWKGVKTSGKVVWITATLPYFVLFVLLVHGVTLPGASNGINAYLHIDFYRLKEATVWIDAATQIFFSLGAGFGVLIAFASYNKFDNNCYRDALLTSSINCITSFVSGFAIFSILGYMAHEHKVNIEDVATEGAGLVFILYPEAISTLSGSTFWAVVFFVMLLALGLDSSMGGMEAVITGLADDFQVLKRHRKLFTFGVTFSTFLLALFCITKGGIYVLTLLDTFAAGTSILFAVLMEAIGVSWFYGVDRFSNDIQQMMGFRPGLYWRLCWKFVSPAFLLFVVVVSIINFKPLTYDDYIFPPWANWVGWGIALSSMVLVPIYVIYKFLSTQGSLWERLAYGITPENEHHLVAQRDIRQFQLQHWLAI
# [17] = biological target: cGMP-inhibited 3',5'-cyclic phosphodiesterase 3A (Homo sapiens, UniProt Q14432); format: functional
# Chain of cGMP-inhibited 3',5'-cyclic phosphodiesterase 3A (Q14432 whole entry): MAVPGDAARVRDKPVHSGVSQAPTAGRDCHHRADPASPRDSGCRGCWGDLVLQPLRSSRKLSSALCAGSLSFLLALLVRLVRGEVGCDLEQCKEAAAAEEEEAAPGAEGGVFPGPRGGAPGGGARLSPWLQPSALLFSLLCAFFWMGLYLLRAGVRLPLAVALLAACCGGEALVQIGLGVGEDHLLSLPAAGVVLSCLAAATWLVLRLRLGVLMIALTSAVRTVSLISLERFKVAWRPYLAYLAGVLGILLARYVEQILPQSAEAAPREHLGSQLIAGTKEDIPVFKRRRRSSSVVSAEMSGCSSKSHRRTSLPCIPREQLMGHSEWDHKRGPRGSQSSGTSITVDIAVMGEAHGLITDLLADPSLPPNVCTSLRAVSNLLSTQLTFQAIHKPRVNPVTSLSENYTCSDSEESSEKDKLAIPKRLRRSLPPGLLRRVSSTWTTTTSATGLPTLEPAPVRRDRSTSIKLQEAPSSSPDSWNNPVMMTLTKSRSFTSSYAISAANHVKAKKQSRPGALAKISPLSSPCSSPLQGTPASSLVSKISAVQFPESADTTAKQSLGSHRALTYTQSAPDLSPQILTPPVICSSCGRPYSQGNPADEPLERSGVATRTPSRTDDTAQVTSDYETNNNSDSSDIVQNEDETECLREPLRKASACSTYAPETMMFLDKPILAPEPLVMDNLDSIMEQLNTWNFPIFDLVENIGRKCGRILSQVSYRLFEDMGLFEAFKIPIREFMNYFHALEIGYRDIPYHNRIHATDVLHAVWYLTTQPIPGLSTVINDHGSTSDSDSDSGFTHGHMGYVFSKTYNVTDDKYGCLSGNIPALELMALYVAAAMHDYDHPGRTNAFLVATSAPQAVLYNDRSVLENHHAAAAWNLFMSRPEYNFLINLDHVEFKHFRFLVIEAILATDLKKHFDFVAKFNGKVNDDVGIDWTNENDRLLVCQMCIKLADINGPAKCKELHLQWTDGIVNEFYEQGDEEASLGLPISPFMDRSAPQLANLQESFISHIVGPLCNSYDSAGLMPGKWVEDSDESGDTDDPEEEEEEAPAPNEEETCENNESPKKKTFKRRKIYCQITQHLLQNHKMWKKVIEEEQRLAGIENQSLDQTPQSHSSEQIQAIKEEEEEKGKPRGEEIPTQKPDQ
# [18] = biological target: D(3) dopamine receptor (Homo sapiens, UniProt P35462)
# Chain of D(3) dopamine receptor (P35462 whole entry): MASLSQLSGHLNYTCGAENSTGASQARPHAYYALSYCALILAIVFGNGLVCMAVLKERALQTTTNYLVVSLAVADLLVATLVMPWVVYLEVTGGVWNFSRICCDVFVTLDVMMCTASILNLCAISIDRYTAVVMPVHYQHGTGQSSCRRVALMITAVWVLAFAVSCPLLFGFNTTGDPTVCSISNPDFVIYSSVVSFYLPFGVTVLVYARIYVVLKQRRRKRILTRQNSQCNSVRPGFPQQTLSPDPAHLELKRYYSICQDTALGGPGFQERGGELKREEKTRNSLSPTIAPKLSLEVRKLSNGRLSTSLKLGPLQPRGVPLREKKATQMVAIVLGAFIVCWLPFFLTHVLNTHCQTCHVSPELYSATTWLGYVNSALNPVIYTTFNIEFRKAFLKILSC
# Further: assay procedure not described here.
SMILES,AC50 [1],AC50 [2],AC50 [3],AC50 [4],AC50 [5],AC50 [6],AC50 [7],AC50 [8],AC50 [9],AC50 [10],AC50 [11],AC50 [12],AC50 [13],AC50 [14],AC50 [15],AC50 [16],AC50 [17],AC50 [18]
CCCCN1C[C@H](O)[C@@H](O)[C@H](O)[C@H]1CO,> 30 µM,> 30 µM,> 30 µM,> 30 µM,> 30 µM,> 30 µM,> 30 µM,> 30 µM,> 30 µM,> 30 µM,> 30 µM,> 30 µM,> 30 µM,> 30 µM,> 30 µM,> 30 µM,> 30 µM,> 30 µM
CN(C)CCC=C1c2ccccc2C(C)(C)c2ccccc21,> 30 µM,> 30 µM,> 30 µM,> 30 µM,> 1 µM,> 30 µM,> 30 µM,22 µM,> 30 µM,21 µM,14 µM,> 30 µM,> 30 µM,> 30 µM,> 30 µM,1.05 µM,> 30 µM,1.89 µM
CCOC(=O)[C@H](CCc1ccccc1)N[C@@H](C)C(=O)N1[C@H](C(=O)O)C[C@@H]2CCC[C@@H]21,> 30 µM,> 10 µM,> 10 µM,> 30 µM,> 10 µM,> 10 µM,> 10 µM,> 30 µM,> 10 µM,> 30 µM,> 10 µM,> 30 µM,> 30 µM,> 30 µM,> 30 µM,> 10 µM,> 30 µM,> 10 µM
Nc1nc(NC2CC2)c2ncn([C@H]3C=C[C@@H](CO)C3)c2n1 [ABACAVIR],> 30 µM,> 30 µM,> 30 µM,> 30 µM,> 30 µM,> 30 µM,> 30 µM,> 30 µM,> 30 µM,> 30 µM,> 30 µM,> 30 µM,10 µM,> 30 µM,> 30 µM,> 30 µM,> 30 µM,> 30 µM
COc1cc2nc(N(C)CCCNC(=O)C3CCCO3)nc(N)c2cc1OC (stereo not given) [ALFUZOSIN],> 30 µM,> 30 µM,> 30 µM,> 30 µM,> 30 µM,> 30 µM,> 30 µM,> 30 µM,> 30 µM,> 30 µM,> 30 µM,> 30 µM,> 30 µM,> 30 µM,> 30 µM,13 µM,> 30 µM,15 µM
